# Earlier results, collected in US20150150473A1, “Drug-Enhanced Neurofeedback” (McLean Hospital Corporation, priority 2008, published 2015).
# Conditions: in vivo
compound,measurement,value
"N[C@@H]1CON=C1O [DCS, d-cycloserine]",half-life,approximately 10 hours
